Experimental findings from patent US20240034723A1, “PIPERIDINYL SMALL MOLECULE DEGRADERS OF HELIOS AND METHODS OF USE” (DANA-FARBER CANCER INSTITUTE, INC., priority 2020, published 2024) are described below.

T1 sequence (Q9UKS7 whole entry): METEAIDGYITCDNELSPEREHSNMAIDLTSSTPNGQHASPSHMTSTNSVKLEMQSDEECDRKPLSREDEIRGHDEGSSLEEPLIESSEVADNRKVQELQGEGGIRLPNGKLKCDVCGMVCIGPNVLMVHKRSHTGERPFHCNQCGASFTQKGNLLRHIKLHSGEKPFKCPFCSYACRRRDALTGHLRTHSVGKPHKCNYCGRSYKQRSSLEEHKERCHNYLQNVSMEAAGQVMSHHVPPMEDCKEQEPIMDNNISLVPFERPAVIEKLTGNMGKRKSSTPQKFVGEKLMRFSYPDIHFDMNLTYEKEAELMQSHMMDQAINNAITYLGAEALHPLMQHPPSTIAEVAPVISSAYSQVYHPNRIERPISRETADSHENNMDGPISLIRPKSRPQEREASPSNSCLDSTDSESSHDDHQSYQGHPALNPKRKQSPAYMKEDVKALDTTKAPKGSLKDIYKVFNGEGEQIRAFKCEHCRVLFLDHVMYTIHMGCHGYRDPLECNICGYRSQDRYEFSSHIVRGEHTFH
T1 sequence (Q96SW2 whole entry): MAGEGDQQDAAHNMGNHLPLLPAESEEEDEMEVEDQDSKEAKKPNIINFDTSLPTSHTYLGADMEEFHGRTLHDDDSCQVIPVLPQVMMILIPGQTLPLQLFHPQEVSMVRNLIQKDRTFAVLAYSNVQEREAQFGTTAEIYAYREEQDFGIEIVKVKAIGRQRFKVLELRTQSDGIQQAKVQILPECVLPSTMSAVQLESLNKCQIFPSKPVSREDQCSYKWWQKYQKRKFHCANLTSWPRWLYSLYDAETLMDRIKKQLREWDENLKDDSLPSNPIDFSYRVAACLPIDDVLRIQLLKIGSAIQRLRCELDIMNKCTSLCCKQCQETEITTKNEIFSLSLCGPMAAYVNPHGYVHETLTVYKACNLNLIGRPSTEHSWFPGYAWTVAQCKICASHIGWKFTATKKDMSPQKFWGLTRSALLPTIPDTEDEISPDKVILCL
T1 sequence (Q16531 whole entry partner): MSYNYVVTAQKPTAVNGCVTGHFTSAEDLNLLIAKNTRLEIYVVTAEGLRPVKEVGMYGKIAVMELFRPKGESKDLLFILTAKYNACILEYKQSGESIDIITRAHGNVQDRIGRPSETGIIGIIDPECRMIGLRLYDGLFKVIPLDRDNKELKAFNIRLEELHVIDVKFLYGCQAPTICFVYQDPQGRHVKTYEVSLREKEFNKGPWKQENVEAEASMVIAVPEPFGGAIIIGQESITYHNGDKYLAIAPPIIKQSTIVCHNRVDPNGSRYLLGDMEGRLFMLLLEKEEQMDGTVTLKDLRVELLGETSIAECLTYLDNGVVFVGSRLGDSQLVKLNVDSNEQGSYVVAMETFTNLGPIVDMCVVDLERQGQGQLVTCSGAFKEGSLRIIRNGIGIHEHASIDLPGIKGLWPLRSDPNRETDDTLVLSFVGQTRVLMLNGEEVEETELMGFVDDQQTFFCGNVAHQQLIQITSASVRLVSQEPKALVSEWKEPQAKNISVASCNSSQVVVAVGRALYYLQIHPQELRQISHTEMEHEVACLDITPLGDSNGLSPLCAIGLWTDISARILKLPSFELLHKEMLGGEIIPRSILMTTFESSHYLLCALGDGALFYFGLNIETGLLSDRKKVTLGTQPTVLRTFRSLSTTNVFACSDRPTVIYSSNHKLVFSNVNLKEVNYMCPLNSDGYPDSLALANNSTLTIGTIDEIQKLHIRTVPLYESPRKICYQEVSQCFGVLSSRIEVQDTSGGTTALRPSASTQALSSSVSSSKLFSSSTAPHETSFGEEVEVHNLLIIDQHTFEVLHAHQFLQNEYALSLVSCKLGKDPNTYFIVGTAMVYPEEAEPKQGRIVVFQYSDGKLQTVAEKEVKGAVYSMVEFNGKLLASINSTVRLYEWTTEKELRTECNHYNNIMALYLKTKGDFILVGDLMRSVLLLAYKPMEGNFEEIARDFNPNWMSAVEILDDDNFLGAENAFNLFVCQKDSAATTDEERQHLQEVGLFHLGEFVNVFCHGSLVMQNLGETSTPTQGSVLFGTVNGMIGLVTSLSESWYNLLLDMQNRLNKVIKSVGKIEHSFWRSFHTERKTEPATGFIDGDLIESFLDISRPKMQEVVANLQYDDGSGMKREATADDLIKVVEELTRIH

The assay concerns the target T1, IKZF2 (Helios) (Homo sapiens, UniProt Q96SW2+Q9UKS7).
T1 construct: CRISPR/Cas-mediated insertion of the HiBiT peptide tag (Promega™) to the N-terminus of the IKZF2 gene locus; endogenous in cells; host or cells: MOLT4 cells, CRISPR/Cas knock-in of HiBiT at the endogenous IKZF2 locus
The assay is described as follows: HiBiT protocol: HiBiT-Helios degradation in MOLT4 cells (Example 63). Format: cell-based. The following applies: after 6 hours of treatment, 13-point 10 μM to 0.00026 μM. The procedure: The HiBiT protein tagging system was applied to MOLT4 cells via a CRISPR/Cas-mediated insertion of the HiBiT peptide tag (Promega™) to the N-terminus of the IKZF2 gene locus (Neon™ Transfection System). The resulting HiBiT-Helios stable cell line was treated with the following inventive compounds in triplicates following a 13-point concentration scheme ranging from 10 μM to 0.00026 μM. At the indicated timepoints, the Nano-Glo® HiBiT Lytic Detection system (Promega™) was utilized for detecting bioluminescence of the HiBiT tag in treated cells: the abundance of the tag is proportionate to the level of luminescence. Following normalization to DMSO, dose-response curves were plotted (GraphPad Prism) to determine the concentration points at which 50% of HiBiT-Helios degradation was achieved by each compound. The extent of degradation (range of luminescence) from the highest to lowest concentration points was calculated to determine Dmax.
Background: HiBiT is a short tag that completes a luciferase, so light tracks the accessible tagged protein.
As a reminder, the DC50 is the concentration giving 50% degradation. A low value points to degradation at low concentration. `O=C1CCC(N2Cc3cc(C4CCN(Cc5ccc6c(c5)C(=O)N(c5cccc(Cl)c5)CCO6)CC4)ccc3C2=O)C(=O)N1` (centres unmarked) [Compound 6] came in with a DC50 of under 5 nM.

With `O=C1CCC(N2Cc3cc(C4CCN(Cc5ccc6ccc(-c7ccccc7)nc6c5)CC4)ccc3C2=O)C(=O)N1` (centres unmarked) [Compound 41], the DC50 was in the range of 25 to 100 nM.

The compound `O=C1CCC(N2Cc3cc(C4CCN(Cc5ccc6c(c5)C(=O)N(c5ncccn5)CCO6)CC4)ccc3C2=O)C(=O)N1` (centres unmarked) [Compound 46] registered a DC50 of 5 to 25 nM.

The compound `O=C1CCC(N2Cc3cc(C4CCN(Cc5ccc6ncn(-c7ncccc7F)c(=O)c6c5)CC4)ccc3C2=O)C(=O)N1` (centres unmarked) [Compound 58] registered a DC50 of under 5 nM.

The compound `Cn1cccc(Nc2cccc(CN3CCC(c4ccc5c(c4)CN(C4CCC(=O)NC4=O)C5=O)CC3)c2)c1=O` (centres unmarked) [Compound 12, 3-(5-(1-(3-((1-Methyl-2-oxo-1,2-dihydropyridin-3-yl)amino)benzyl)piperidin-4-yl)-1-oxoisoindolin-2-yl)piperidine-2,6-dione] displayed a DC50 of 5 to 25 nM.

In the case of `O=C1CCC(N2Cc3cc(C4CCN(Cc5ccc6ccn(-c7ccccn7)c(=O)c6c5)CC4)ccc3C2=O)C(=O)N1` (centres unmarked) [Compound 57], the DC50 was under 5 nM.

As to `O=C1CCC(N2Cc3cc(C4CCN(Cc5ccc6c(c5)C(=O)N(c5ccns5)CCO6)CC4)ccc3C2=O)C(=O)N1` (centres unmarked) [Compound 49], the DC50 was under 5 nM.

On to `O=C1CCC(N2Cc3cc(C4CCN(Cc5ccc6ncn(-c7ccccc7)c(=O)c6c5)CC4)ccc3C2=O)C(=O)N1` (centres unmarked) [Compound 44], for which the DC50 lay in the range of 5 to 25 nM.

`O=C1CCC(N2Cc3cc(C4CCN(Cc5ccc6c(c5)C(=O)N(c5cccc(F)c5)CCO6)CC4)ccc3C2=O)C(=O)N1` (centres unmarked) [Compound 5] displayed a DC50 of under 5 nM.

`O=C1CCC(N2Cc3cc(C4CCN(Cc5ccc6c(c5)C(=O)N(c5ccncn5)CCO6)CC4)ccc3C2=O)C(=O)N1` (centres unmarked) [Compound 47] yielded a DC50 of 5 to 25 nM.

In turn, `O=C1CCC(N2Cc3cc(C4CCN(Cc5ccc6ncn(-c7ccccc7F)c(=O)c6c5)CC4)ccc3C2=O)C(=O)N1` (centres unmarked) [Compound 27] returned a DC50 of 5 to 25 nM.

`O=C1CCC(N2Cc3cc(C4CCN(Cc5ccc6cn(-c7ccccc7)nc6c5)CC4)ccc3C2=O)C(=O)N1` (centres unmarked) [Compound 42] yielded a DC50 of under 5 nM.

As to `O=C1CCC(N2Cc3cc(C4CCN(Cc5ccc6c(c5)C(=O)N(c5ccccc5)CCO6)CC4)ccc3C2=O)C(=O)N1` (centres unmarked) [Compound 1, 3-(1-oxo-5-(1-((5-oxo-4-phenyl-2,3,4,5-tetrahydrobenzo[f][1,4]oxazepin-7-yl)methyl)piperidin-4-yl)isoindolin-2-yl)piperidine-2,6-dione], the DC50 was under 5 nM.

As to `O=C1CCC(N2Cc3cc(C4CCN(Cc5ccc6c(c5)N(c5ccccc5)C(=O)C6)CC4)ccc3C2=O)C(=O)N1` (centres unmarked) [Compound 18, 3-[1-oxo-5-[1-[(2-oxo-1-phenyl-indolin-6-yl)methyl]-4-piperidyl]isoindolin-2-yl]piperidine-2,6-dione], the DC50 was under 5 nM.

The compound `O=C1CCC(N2Cc3cc(C4CCN(Cc5ccc6ncn(-c7ccccn7)c(=O)c6c5)CC4)ccc3C2=O)C(=O)N1` (centres unmarked) [Compound 31, 3-(1-oxo-5-(1-((4-oxo-3-(pyridin-2-yl)-3,4-dihydroquinazolin-6-yl)methyl)piperidin-4-yl)isoindolin-2-yl)piperidine-2,6-dione] had a half-maximal degradation concentration (DC50) of 5 to 25 nM.

Regarding `O=C1CCC(N2Cc3cc(C4CCN(Cc5ccc6c(c5)N(c5ccccc5)C(=O)CCC6)CC4)ccc3C2=O)C(=O)N1` (centres unmarked) [Compound 22], the DC50 lay in the range of 5 to 25 nM.

`O=C1CCC(N2Cc3cc(C4CCN(Cc5ccc6ncn(-c7ccns7)c(=O)c6c5)CC4)ccc3C2=O)C(=O)N1` (centres unmarked) [Compound 59] displayed a DC50 of 5 to 25 nM.

`O=C1CCC(N2Cc3cc(C4CCN(Cc5ccc6c(c5)C(=O)N(c5ccsn5)CCO6)CC4)ccc3C2=O)C(=O)N1` (centres unmarked) [Compound 48] displayed a DC50 of 5 to 25 nM.

`O=C1CCC(N2Cc3cc(C4CCN(Cc5ccc6cnn(-c7ccccn7)c(=O)c6c5)CC4)ccc3C2=O)C(=O)N1` (centres unmarked) [Compound 43, 3-[1-oxo-5-[1-[[4-oxo-3-(2-pyridyl)phthalazin-6-yl]methyl]-4-piperidyl]isoindolin-2-yl]piperidine-2,6-dione] had a DC50 of 5 to 25 nM.

In turn, `O=C1CCC(N2Cc3cc(C4CCN(Cc5ccc6c(c5)C(=O)N(c5ccccn5)CCO6)CC4)ccc3C2=O)C(=O)N1` (centres unmarked) [Compound 3] had a 50% degradation concentration (DC50) of 5 to 25 nM.

In turn, `O=C1CCC(N2Cc3cc(C4CCN(Cc5ccc6cc(-c7ccccc7)nn6c5)CC4)ccc3C2=O)C(=O)N1` (centres unmarked) [Compound 38, 3-[1-oxo-5-[1-[(2-phenylpyrazolo[1,5-a]pyridin-6-yl)methyl]-4-piperidyl]isoindolin-2-yl]piperidine-2,6-dione] displayed a DC50 of 5 to 25 nM.

Regarding `O=C1CCC(N2Cc3cc(C4CCN(Cc5cc6n(n5)CCN(c5ccccc5)C6=O)CC4)ccc3C2=O)C(=O)N1` (centres unmarked) [Compound 8, 3-(1-oxo-5-(1-((4-oxo-5-phenyl-4,5,6,7-tetrahydropyrazolo[1,5a]pyrazin-2-yl)methyl)piperidin-4-yl)isoindolin-2-yl)piperidine-2,6-dione], the DC50 was in the range of 5 to 25 nM.

With `O=C1CCC(N2Cc3cc(C4CCN(Cc5ccc6c(c5)C(=O)N(c5ccccc5F)CCO6)CC4)ccc3C2=O)C(=O)N1` (centres unmarked) [Compound 45], the DC50 was under 5 nM.
